According to article PMC12692968, “Design, Synthesis, Molecular Docking, and Anticancer Activity of Chalcone Derivatives as VEGFR-2 Inhibitors” (Molecules, 2025):

What was measured:
[1] = system: human cervical squamous cell carcinoma cell line SiHa; assay: CCK-8 cytotoxicity assay, SiHa cells; format: cell-based; conditions: for IC50: Homo sapiens, SiHa, CCK-8, 48 h incubation, mean ± SD, n = 3
Experimental: (§1) The SiHa, K562, B16 and HK-2 cells were obtained from Wuhan Pricella Biotechnology Co., Ltd. (Wuhan, China). […] 2–5 × 10^3 cells were added to each well of a 96-well plate and incubated for 12 h, followed by the addition of the tested compounds. After incubation for 48 h, 10 μL of the CCK-8 solution was added to each well and incubated for another 2 h. The absorbance of each well was measured at 450 nm using an enzyme-linked immunosorbent assay (ELISA) reader. The experiments were replicated three times. The inhibition rate of cancer cells was calculated using the Formula (1). The half-maximal inhibitory concentration (IC50) value was calculated using GraphPad Prism 8.0 software.

[2] = system: human chronic myeloid leukemia cell line K562; assay: CCK-8 cytotoxicity assay, K562 cells; format: cell-based; conditions: for IC50: CCK-8, 48 h incubation, mean ± SD, n = 3
Experimental: as §1

[3] = system: mouse melanoma cell line B16; assay: CCK-8 cytotoxicity assay, B16 cells; format: cell-based; conditions: for IC50: CCK-8, 48 h incubation, mean ± SD, n = 3
Experimental: as §1

[4] = system: human renal epithelial cell line HK-2; assay: CCK-8 cytotoxicity assay, HK-2 cells; format: cell-based; conditions: Homo sapiens, Epithelial cell; CCK-8, 48 h incubation, mean ± SD, n = 3
Experimental: as §1, with “The cytotoxicity of synthesized compounds against HK-2 cells was also detected. […] The SiHa,” for “The SiHa,”

[5] = target: T1, VEGFR-2 (KDR) protein kinase (Homo sapiens, UniProt P35968); assay: VEGFR-2 (KDR) Kinase Assay Kit enzyme inhibition assay; format: biochemical; conditions: Kinase-Glo MAX, 30 °C 45 min, mean ± SD, n = 3
T1 construct: purchased BPS Biosciences, San Diego, CA, USA
Experimental: Many studies have shown that abnormal VEGFR-2 signaling could induce proliferation of cervical squamous cell carcinoma cells, myeloid leukemia cancer cells, and melanoma cells. […] A VEGFR-2 (KDR) Kinase Assay Kit (BPS Biosciences, San Diego, CA, USA) was used to conduct a VEGFR-2 inhibition assay following the manufacturer’s protocol. Briefly, kinase buffer and ATP and PTK substrate (Poly-Glu,Tyr 4:1) were diluted with distilled water to prepare a master mix solution. The master mix solution, test sample, and VEGFR-2 (KDR) protein kinase (2 ng/μL) were added to a 96-well plate and incubated at 30 °C for 45 min. After incubation, Kinase-Glo™ MAX (BPS Biosciences) reagent was added to each well, and incubated for 15 min at room temperature. Then it was immediately detected with an ELISA reader. The experiments were replicated three times.

T1 sequence (P35968 20-1356): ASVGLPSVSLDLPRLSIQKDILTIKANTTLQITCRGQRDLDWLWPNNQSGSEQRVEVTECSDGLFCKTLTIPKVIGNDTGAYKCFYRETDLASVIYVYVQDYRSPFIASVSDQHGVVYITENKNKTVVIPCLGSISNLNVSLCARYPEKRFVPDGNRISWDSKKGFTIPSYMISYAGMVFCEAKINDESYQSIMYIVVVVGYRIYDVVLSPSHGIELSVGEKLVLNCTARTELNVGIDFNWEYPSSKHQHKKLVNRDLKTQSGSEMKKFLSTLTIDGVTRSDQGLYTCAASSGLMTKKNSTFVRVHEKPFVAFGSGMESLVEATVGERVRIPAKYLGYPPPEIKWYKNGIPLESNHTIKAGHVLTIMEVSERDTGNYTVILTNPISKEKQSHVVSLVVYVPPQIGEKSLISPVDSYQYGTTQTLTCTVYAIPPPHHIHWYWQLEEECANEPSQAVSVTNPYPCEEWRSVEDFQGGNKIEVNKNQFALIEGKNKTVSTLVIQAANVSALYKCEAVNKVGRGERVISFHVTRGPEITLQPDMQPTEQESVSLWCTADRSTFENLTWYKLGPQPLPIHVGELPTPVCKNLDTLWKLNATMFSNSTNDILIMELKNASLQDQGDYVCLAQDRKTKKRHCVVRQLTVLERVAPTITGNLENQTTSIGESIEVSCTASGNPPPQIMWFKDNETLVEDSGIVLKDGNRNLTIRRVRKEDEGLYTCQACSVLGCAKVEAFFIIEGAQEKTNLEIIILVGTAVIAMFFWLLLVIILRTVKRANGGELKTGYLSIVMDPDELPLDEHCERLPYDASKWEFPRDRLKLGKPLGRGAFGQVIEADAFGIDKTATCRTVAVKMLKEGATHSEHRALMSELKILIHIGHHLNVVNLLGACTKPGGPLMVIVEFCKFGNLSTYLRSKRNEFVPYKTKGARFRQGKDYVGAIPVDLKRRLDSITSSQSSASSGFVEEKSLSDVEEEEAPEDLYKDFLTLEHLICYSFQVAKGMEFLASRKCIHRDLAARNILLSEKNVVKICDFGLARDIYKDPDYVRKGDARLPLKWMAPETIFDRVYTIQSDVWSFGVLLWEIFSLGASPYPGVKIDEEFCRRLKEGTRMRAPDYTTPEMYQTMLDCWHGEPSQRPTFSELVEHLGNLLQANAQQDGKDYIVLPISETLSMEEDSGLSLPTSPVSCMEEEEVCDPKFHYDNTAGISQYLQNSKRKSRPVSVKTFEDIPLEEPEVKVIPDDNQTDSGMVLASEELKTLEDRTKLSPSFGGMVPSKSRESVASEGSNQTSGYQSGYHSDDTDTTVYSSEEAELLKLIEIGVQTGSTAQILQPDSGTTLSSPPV

| SMILES | IC50 [1] | IC50 ([2]; Homo sapiens, K562, 48 h) | IC50 ([3]; Mus musculus, B16, 48 h) | fold increase in cytotoxicity compared to unsubstituted compound 2a, SiHa ([1]; ratio of IC50 values vs 2a) | fold increase in cytotoxicity compared to unsubstituted compound 2a, K562 ([2]; ratio of IC50 values vs 2a) | fold increase in cytotoxicity compared to unsubstituted compound 2a, B16 ([3]; ratio of IC50 values vs 2a) | IC50 [4] | IC50 [5] | IC50 [2] | IC50 [3] | IC50 ([1]; 48 h) |
| --- | --- | --- | --- | --- | --- | --- | --- | --- | --- | --- | --- |
| O=C(Nc1ccc(C(=O)C=Cc2ccccc2)cc1)Nc1ccc(Cl)c(C(F)(F)F)c1 [Compound 2a, 1-(4-chloro-3-(trifluoromethyl)phenyl)-3-(4-cinnamoylphenyl)urea] | 4.43 ± 0.16 µM | 12.7 ± 0.45 µM | 10.7 ± 0.78 µM |  |  |  |  |  |  |  |  |
| COc1ccc(/C=C/C(=O)c2ccc(NC(=O)Nc3ccc(Cl)c(C(F)(F)F)c3)cc2)cc1 [Compound 2b, (E)-1-(4-chloro-3-(trifluoromethyl)phenyl)-3-(4-(3-(4-methoxyphenyl)acryloyl)phenyl)urea] | 5.55 ± 0.26 µM | 5.08 ± 0.31 µM | 8.32 ± 0.61 µM |  |  |  |  |  |  |  |  |
| O=C(Nc1ccc(C(=O)/C=C/c2ccc(F)cc2)cc1)Nc1ccc(Cl)c(C(F)(F)F)c1 [Compound 2c, (E)-1-(4-chloro-3-(trifluoromethyl)phenyl)-3-(4-(3-(4-fluorophenyl)acryloyl)phenyl)urea] | 1.03 ± 0.02 µM | 2.05 ± 0.13 µM | 5.02 ± 0.18 µM | 4.3 fold | 6.2 fold | 2.1 fold | 15.7 ± 1.22 µM | 0.68 ± 0.03 µM |  |  |  |
| O=C(Nc1ccc(C(=O)/C=C/c2ccc(Cl)cc2)cc1)Nc1ccc(Cl)c(C(F)(F)F)c1 [Compound 2d, (E)-1-(4-chloro-3-(trifluoromethyl)phenyl)-3-(4-(3-(4-chlorophenyl)acryloyl)phenyl)urea] | 4.78 ± 0.14 µM | 8.41 ± 0.57 µM | 12.8 ± 0.84 µM |  |  |  |  |  |  |  |  |
| O=C(Nc1ccc(C(=O)/C=C/c2cccc(Cl)c2)cc1)Nc1ccc(Cl)c(C(F)(F)F)c1 [Compound 2e, (E)-1-(4-chloro-3-(trifluoromethyl)phenyl)-3-(4-(3-(3-chlorophenyl)acryloyl)phenyl)urea] | 4.71 ± 0.29 µM | 2.91 ± 0.17 µM | 11.3 ± 0.64 µM |  |  |  |  |  |  |  |  |
| COc1cc(/C=C/C(=O)c2ccc(NC(=O)Nc3ccc(Cl)c(C(F)(F)F)c3)cc2)cc(OC)c1OC [Compound 2f, (E)-1-(4-chloro-3-(trifluoromethyl)phenyl)-3-(4-(3-(3,4,5-trimethoxyphenyl)acryloyl)phenyl)urea] | 4.89 ± 0.21 µM | 1.62 to 2.02 µM | 1.62 to 2.02 µM |  |  |  | 5.85 ± 0.36 µM | 0.39 ± 0.02 µM | 1.68 ± 0.09 µM | 1.65 ± 0.29 µM |  |
| Cc1ccc(/C=C/C(=O)c2ccc(NC(=O)Nc3ccc(Cl)c(C(F)(F)F)c3)cc2)cc1 [Compound 2g, (E)-1-(4-chloro-3-(trifluoromethyl)phenyl)-3-(4-(3-(p-tolyl)acryloyl)phenyl)urea] | 6.03 ± 0.38 µM | 4.19 ± 0.26 µM | 7.15 ± 0.49 µM |  |  |  |  |  |  |  |  |
| COc1cc(/C=C/C(=O)c2ccc(NC(=O)Nc3ccc(Cl)c(C(F)(F)F)c3)cc2)cc(OC)c1 [Compound 2h, (E)-1-(4-chloro-3-(trifluoromethyl)phenyl)-3-(4-(3-(3,5-dimethoxyphenyl)acryloyl)phenyl)urea] | 2.99 ± 0.27 µM | 1.62 to 2.02 µM | 1.62 to 2.02 µM |  |  |  | 9.87 ± 0.89 µM |  | 2.02 ± 0.12 µM | 1.62 ± 0.14 µM |  |
| CCc1ccc(/C=C/C(=O)c2ccc(NC(=O)Nc3ccc(Cl)c(C(F)(F)F)c3)cc2)cc1 [Compound 2i, (E)-1-(4-chloro-3-(trifluoromethyl)phenyl)-3-(4-(3-(4-ethylphenyl)acryloyl)phenyl)urea] | 7.96 ± 0.26 µM | 4.45 ± 0.53 µM | 8.66 ± 0.58 µM |  |  |  |  |  |  |  |  |
| COc1ccc(/C=C/C(=O)c2ccc(NC(=O)Nc3ccc(Cl)c(C(F)(F)F)c3)cc2)c(OC)c1OC [Compound 2j, (E)-1-(4-chloro-3-(trifluoromethyl)phenyl)-3-(4-(3-(2,3,4-trimethoxyphenyl)acryloyl)phenyl)urea] | 6.62 ± 0.28 µM | 2.4 ± 0.22 µM | 9.73 ± 0.98 µM |  |  |  |  |  |  |  |  |
| Cc1ccc(/C=C/C(=O)c2ccc(NC(=O)Nc3ccc(Cl)c(C(F)(F)F)c3)cc2)cc1C [Compound 2k, (E)-1-(4-chloro-3-(trifluoromethyl)phenyl)-3-(4-(3-(3,4-dimethylphenyl)acryloyl)phenyl)urea] | 8.35 ± 0.09 µM | 1.73 ± 0.23 µM | 6.42 ± 0.54 µM |  |  |  |  |  |  |  |  |
| O=C(Nc1ccc(C(=O)/C=C/c2ccco2)cc1)Nc1ccc(Cl)c(C(F)(F)F)c1 [Compound 2m, (E)-1-(4-chloro-3-(trifluoromethyl)phenyl)-3-(4-(3-(furan-2-yl)acryloyl)phenyl)urea] | 6.53 ± 0.24 µM | 8.95 ± 0.76 µM |  |  |  |  |  |  |  |  |  |
| O=C(Nc1ccc(C(=O)/C=C/c2cccs2)cc1)Nc1ccc(Cl)c(C(F)(F)F)c1 [Compound 2n, (E)-1-(4-chloro-3-(trifluoromethyl)phenyl)-3-(4-(3-(thiophen-2-yl)acryloyl)phenyl)urea] |  | 15.2 ± 1.2 µM |  |  |  |  |  | 2.2 ± 0.1 µM |  |  | > 20 µM |
| COc1ccc(/C=C/C(=O)c2ccc(NC(=O)Nc3ccc(Cl)c(C(F)(F)F)c3)cc2)cc1O [Compound 2o, (E)-1-(4-chloro-3-(trifluoromethyl)phenyl)-3-(4-(3-(3-hydroxy-4-methoxyphenyl)acryloyl)phenyl)urea] | 1.22 ± 0.07 µM | 1.51 ± 0.16 µM | 3.06 ± 0.22 µM |  |  |  | 19.1 ± 1.05 µM | 0.31 ± 0.02 µM |  |  |  |
| COc1cc(/C=C/C(=O)c2ccc(NC(=O)Nc3ccc(Cl)c(C(F)(F)F)c3)cc2)ccc1O [Compound 2p, (E)-1-(4-chloro-3-(trifluoromethyl)phenyl)-3-(4-(3-(4-hydroxy-3-methoxyphenyl)acryloyl)phenyl)urea] | 4.25 ± 0.14 µM | 3.42 ± 0.18 µM | 4.37 ± 0.28 µM |  |  |  | 13.9 ± 0.58 µM |  |  |  |  |
| O=C(Nc1ccc(C(=O)/C=C/c2ccc(O)c(O)c2)cc1)Nc1ccc(Cl)c(C(F)(F)F)c1 [Compound 2q, (E)-1-(4-chloro-3-(trifluoromethyl)phenyl)-3-(4-(3-(3,4-dihydroxyphenyl)acryloyl)phenyl)urea] | 2.53 ± 0.09 µM | 1.12 ± 0.1 µM | 4.49 ± 0.24 µM |  |  |  | 24.3 ± 1.71 µM | 0.55 ± 0.04 µM |  |  |  |
| COc1cc(/C=C/C(=O)c2ccc(NC(=O)Nc3ccc(Cl)c(C(F)(F)F)c3)cc2)cc(OC)c1O [Compound 2r, (E)-1-(4-chloro-3-(trifluoromethyl)phenyl)-3-(4-(3-(4-hydroxy-3,5-dimethoxyphenyl)acryloyl)phenyl)urea] | 2.22 ± 0.1 µM | 0.97 ± 0.06 µM | 2.93 ± 0.29 µM |  |  |  | 11.3 ± 0.66 µM |  |  |  |  |
| O=C(Nc1ccc(C(=O)/C=C/c2ccc(O)cc2)cc1)Nc1ccc(Cl)c(C(F)(F)F)c1 [Compound 2s, (E)-1-(4-chloro-3-(trifluoromethyl)phenyl)-3-(4-(3-(4-hydroxyphenyl)acryloyl)phenyl)urea] | 8.96 ± 0.03 µM | 6.47 ± 0.36 µM | 4.29 ± 0.52 µM |  |  |  |  |  |  |  |  |
